Assay results from patent US20100061982A1, “3-SUBSTITUTED-1H-INDOLE, 3-SUBSTITUTED-1H-PYRROLO[2,3-B]PYRIDINE AND 3-SUBSTITUTED-1H-PYRROLO[3,2-B]PYRIDINE COMPOUNDS, THEIR USE AS MTOR KINASE AND PI3 KINASE INHIBITORS, AND THEIR SYNTHESES” (priority 2008, published 2010).
Converted amounts (≈) assume the structure as drawn. Where two headings read alike, the source gives them in different places.

Tests used:
[1] = molecular target: PI3K alpha (Homo sapiens, UniProt P42336); test: PI3K-alpha Fluorescence Polarization Assay; assay type: biochemical
[2] = Microsome Stability (15 min), human; assay type: in vitro ADME; conditions: microsomes, Phase I (NADPH), read-out: Microsome Stability (15 min) T ½ Phase I human
[3] = Microsome Stability (15 min), nude mouse; assay type: in vitro ADME; conditions: microsomes, Phase I (NADPH), read-out: Microsome Stability (15 min) T ½ Phase I nude mouse
[4] = Microsome Stability (15 min), rat; assay type: in vitro ADME; conditions: microsomes, Phase I (NADPH), read-out: Microsome Stability (15 min) T ½ Phase I rat
[5] = Solubility pH 7.4; conditions: pH 7.4, aqueous buffer
[6] = PAMPA permeability pH 7.4
[7] = Buffer Stability (37° C.)
[8] = Plasma Stability (37° C.), rat

PI3K alpha, sequence (P42336 whole entry, species assumed): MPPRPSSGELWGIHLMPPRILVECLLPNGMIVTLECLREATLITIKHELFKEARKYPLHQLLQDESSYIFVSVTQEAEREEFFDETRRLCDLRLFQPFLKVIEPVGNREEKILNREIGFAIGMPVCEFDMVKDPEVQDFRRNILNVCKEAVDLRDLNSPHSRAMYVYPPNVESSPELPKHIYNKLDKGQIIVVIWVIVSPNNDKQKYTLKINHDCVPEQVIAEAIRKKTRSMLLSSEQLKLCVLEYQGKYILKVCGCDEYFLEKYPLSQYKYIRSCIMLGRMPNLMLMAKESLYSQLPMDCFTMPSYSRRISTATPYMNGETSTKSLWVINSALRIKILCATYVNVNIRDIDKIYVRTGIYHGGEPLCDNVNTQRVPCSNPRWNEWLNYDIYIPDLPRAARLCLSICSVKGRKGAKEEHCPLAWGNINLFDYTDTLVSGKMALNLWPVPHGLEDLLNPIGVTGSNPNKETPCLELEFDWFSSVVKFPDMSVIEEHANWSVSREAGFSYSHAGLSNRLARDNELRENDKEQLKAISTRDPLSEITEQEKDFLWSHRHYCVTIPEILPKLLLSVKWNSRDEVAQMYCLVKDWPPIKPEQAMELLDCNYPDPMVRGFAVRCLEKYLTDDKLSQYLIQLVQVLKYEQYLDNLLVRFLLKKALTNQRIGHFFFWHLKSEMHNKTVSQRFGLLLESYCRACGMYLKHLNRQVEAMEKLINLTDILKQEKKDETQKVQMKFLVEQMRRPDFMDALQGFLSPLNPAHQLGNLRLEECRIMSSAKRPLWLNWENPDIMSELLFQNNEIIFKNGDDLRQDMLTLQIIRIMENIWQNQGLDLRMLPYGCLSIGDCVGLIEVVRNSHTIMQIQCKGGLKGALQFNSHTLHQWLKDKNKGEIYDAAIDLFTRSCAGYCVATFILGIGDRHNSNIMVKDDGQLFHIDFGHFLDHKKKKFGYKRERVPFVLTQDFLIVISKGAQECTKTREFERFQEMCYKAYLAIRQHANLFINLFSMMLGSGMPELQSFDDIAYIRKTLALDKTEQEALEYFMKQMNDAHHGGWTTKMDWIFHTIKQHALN
PI3K alpha, sequence (P27986 whole entry partner, species assumed): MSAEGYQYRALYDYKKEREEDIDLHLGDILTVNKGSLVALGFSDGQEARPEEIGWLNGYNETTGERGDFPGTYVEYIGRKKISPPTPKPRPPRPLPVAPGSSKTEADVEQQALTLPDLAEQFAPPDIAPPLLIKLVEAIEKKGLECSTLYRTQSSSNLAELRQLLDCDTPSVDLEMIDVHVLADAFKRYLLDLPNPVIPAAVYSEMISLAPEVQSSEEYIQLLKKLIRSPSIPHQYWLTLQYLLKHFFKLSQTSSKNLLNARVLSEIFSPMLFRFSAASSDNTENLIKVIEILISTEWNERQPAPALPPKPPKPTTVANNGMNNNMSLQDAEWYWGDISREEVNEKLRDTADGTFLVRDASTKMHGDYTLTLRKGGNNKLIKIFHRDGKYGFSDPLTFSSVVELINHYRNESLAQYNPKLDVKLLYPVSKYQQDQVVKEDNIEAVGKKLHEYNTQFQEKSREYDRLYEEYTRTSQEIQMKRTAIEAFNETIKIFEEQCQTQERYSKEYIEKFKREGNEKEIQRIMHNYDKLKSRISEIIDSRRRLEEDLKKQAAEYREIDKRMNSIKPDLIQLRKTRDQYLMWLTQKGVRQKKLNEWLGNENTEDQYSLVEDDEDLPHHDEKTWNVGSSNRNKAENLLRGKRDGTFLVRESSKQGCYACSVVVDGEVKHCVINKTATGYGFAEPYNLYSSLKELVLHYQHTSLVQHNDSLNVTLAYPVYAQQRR

half-life [2]	half-life [4]	solubility [5]	PAMPA Pe [6]	IC50 ([1]; read-out: PI3K alpha Mean IC50)	half-life ([3]; nude, mouse)	Buffer Stability (37° C.) % Remaining (at 16-23 hours) SGF [7]	Buffer Stability (37° C.) % Remaining (at 16-23 hours) SIF [7]	Buffer Stability (37° C.) % Remaining (at 16-23 hours) pH 1 [7]	Buffer Stability (37° C.) % Remaining (at 16-23 hours) pH 4.5 [7]	Buffer Stability (37° C.) % Remaining (at 16-23 hours) pH 6.6 [7]	Buffer Stability (37° C.) % Remaining (at 16-23 hours) pH 7.4 [7]	Buffer Stability (37° C.) % Remaining (at 16-23 hours) pH 9 [7]	Plasma Stability (37° C.) % Remaining (3-3.5 hours) rat [8]	Structure (SMILES)	IC50 [1]	half-life [3]
–	–	49 µg/mL	0.24 10e−6 cm/s	0.082 µM	–	–	–	–	–	–	–	–	–	COc1ccc2c(c1)c(/C=C1\Oc3cc(OC(C)=O)cc(OC(C)=O)c3C1=O)cn2CCCN(C)C [Example 15, (2Z)-2-({1-[3-(dimethylamino)propyl]-5-methoxy-1H-indol-3-yl}methylene)-3-oxo-2,3-dihydro-1-benzofuran-4,6-diyl diacetate]	–	–
21 min	3 min	1 µg/mL (≈ 1.73 µM)	0 10e−6 cm/s	–	2 min	94%	0%	89%	98%	79%	20%	0%	–	COc1ccc2c(c1)c(/C=C1\Oc3cc(OC(=O)C(C)(C)C)cc(OC(=O)C(C)(C)C)c3C1=O)cn2CCCN(C)C [Example 14, (2Z)-2-({1-[3-(dimethylamino)propyl]-5-methoxy-1H-indol-3-yl}methylene)-3-oxo-2,3-dihydro-1-benzofuran-4,6-diyl bis(2,2-dimethylpropanoate)]	–	–
6 min	8 min	1 µg/mL (≈ 1.56 µM)	0 10e−6 cm/s	0.01 µM	–	0%	0%	0%	0%	0%	0%	0%	0%	COc1ccc2[nH]c(-c3ccccc3)c(/C=C3\Oc4cc(OC(=O)Oc5ccccc5)cc(OC(=O)Oc5ccccc5)c4C3=O)c2c1 [Example 23, (2Z)-2-[(5-methoxy-2-phenyl-1H-indol-3-yl)methylene]-3-oxo-2,3-dihydro-1-benzofuran-4,6-diyl diphenyl biscarbonate]	–	–
–	12 min	53 µg/mL (≈ 135 µM)	0 10e−6 cm/s	–	–	–	–	–	–	–	–	–	–	COc1ccc2c(c1)c(/C=C1\Oc3cc(O)ccc3C1=O)cn2CCCN(C)C [(2Z)-2-({1-[3-(dimethylamino)propyl]-5-methoxy-1H-indol-3-yl}methylene)-6-hydroxy-1-benzofuran-3(2H)-one]	–	–

Structure (SMILES)	half-life [2]	half-life [4]	solubility [5]	PAMPA Pe [6]	IC50 ([1]; read-out: PI3K alpha Mean IC50)	half-life ([3]; nude, mouse)	Buffer Stability (37° C.) % Remaining (at 16-23 hours) SGF [7]	Buffer Stability (37° C.) % Remaining (at 16-23 hours) SIF [7]	Buffer Stability (37° C.) % Remaining (at 16-23 hours) pH 1 [7]	Buffer Stability (37° C.) % Remaining (at 16-23 hours) pH 4.5 [7]	Buffer Stability (37° C.) % Remaining (at 16-23 hours) pH 6.6 [7]	Buffer Stability (37° C.) % Remaining (at 16-23 hours) pH 7.4 [7]	Buffer Stability (37° C.) % Remaining (at 16-23 hours) pH 9 [7]	Plasma Stability (37° C.) % Remaining (3-3.5 hours) rat [8]	IC50 [1]	half-life [3]
CCOP(=O)(OCC)Oc1cc2c(c(OP(=O)(OCC)OCC)c1)C(=O)/C(=C/c1cn(CCCN(C)C)c3ccc(OC)cc13)O2 [Example 33, (2Z)-2-({1-[3-(dimethylamino)propyl]-5-methoxy-1H-indol-3-yl}methylene)-3-oxo-2,3-dihydro-1-benzofuran-4,6-diyl tetraethyl bis(phosphate)]	4 min	12 min	59 µg/mL	0.25 10e−6 cm/s	–	–	–	–	–	–	–	–	–	–	> 10 µM	15 min
CCOC(=O)CNC(=O)Oc1cc(OC(=O)NCC(=O)OCC)c2c(c1)O/C(=C\c1cn(CCCN(C)C)c3ccc(OC)cc13)C2=O [Example 35, diethyl 2,2′-[[(2Z)-2-({1-[3-(dimethylamino)propyl]-5-methoxy-1H-indol-3-yl}methylene)-3-oxo-2,3-dihydro-1-benzofuran-4,6-diyl]bis(oxycarbonylimino)]diacetate]	–	–	51 µg/mL (≈ 76.5 µM)	0 10e−6 cm/s	–	–	–	–	–	–	–	–	–	–	0.028 µM	–
